Measured values from US20030092692A1, “Cytoprotective steroids (II)” (priority 2000, published 2003).

Key:
NMDA receptors = conditions: cited from earlier work
estrogenic activity = conditions: cited from earlier work
[1] = tested on: CA1 pyramidal cell layer of organotypic hippocampal slice cultures; experiment: Hypoxic challenge of organotypic hippocampal slice cultures (PI fluorescence); type: cell-based, Wistar rat; conditions: 180 min hypoxia, 24 h recovery, hypoxia control 27.6±3.7%
Protocol: Organotypic hippocampal slice cultures were prepared using the basic method of Pringle et al (1997) modified as follows:
Wistar rat pups (8-11 days old) were decapitated and the hippocampus rapidly dissected into ice-cold Goy's balanced salt solution supplemented with 4.5 mg/ml glucose. Slices were separated and plated into Millicell CM culture inserts (4 per well) and maintained at 37° C./5% CO2 for 14 days. Maintenance medium consisted of 25% heat-inactivated horse serum, 25% Hank's balanced salt solution (HBSS) and 50% minimum essential medium with added Earle's salts (MEM) supplemented with 1 mM glutamine and 4.5 mg/ml glucose.
Experimental hypoxia was performed as described previously (Pringle et al., (1996) Stroke 27, p2124-2130, (1997) Brain Research 755-46). Briefly, cultures were transferred to serum free medium (SFM—75% MEM, 25% HBSS supplemented with 1 mM glutamine and 4.5 mg/ml glucose) containing 5 μg/ml of the fluorescent exclusion dye propidium iodide (PI). Cultures were allowed to equilibrate in SFM for 60 minutes prior to imaging. PI fluorescence was detected using a standard Leica inverted microscope fitted with a rhodamine filter set (Leica N2). Any cultures in which PI fluorescence was detected at this stage were excluded from further study. Hypoxia was induced by transferring cultures to SFM (+PI) which had been saturated with 95% N2/5% CO2. Culture plates (without lids) were then sealed into an airtight chamber in which the atmosphere was saturated with 95% N2/5% CO2 by continuously blowing through gas at 1000 ml/min for ten minutes before being sealed and placed in the incubator for 170 mins (total time of hypoxia was therefore 180 mins). At the end of the hypoxia period cultures were returned to normoxic SFM containing PI and placed back in the incubator for 24 hours.
Neuronal damage was assessed as described previously (Pringle et al., 1996, 1997) using NIH Image 1.60 running on an Apple IIsi computer. Images were captured using a COHU monochrome camera and saved onto optical disk for offline analysis using NIH image. Light transmission images were captured prior to the addition of drugs, and PI fluorescence images recorded at the end of the 24 hour post-hypoxia recovery period. The areas of the CA1, CA3 and dentate gyrus (DG) cell layers were determined from the transmission image. The area of PI fluorescence in each of the cell layers was measured using the density slice function within NIH Image, and neuronal damage expressed as the percentage of the regional area in which PI fluorescence was detected above background.
Steroid compounds were prepared by making an initial 1 mg/ml solution in ethanol and further diluting down in SFM. Compounds were included in the cultures for 45 minutes prior to hypoxia, during the hypoxic episode and during the post-hypoxic recovery period. Control experiments consisted of cultures treated with vehicle alone.

Rat cortical neurons = experiment: Glutamate induced neuronal cell death of primary cortical cultures (LDH release); type: cell-based, Wistar rat; conditions: for effect on normal cell death: without glutamate
Protocol: Rat cortical neurons were cultured by modification of the methods of Dichter (1973) Brain Res 149, p279-293 and Durkin et al (1996) J. Neurochem 66, p951-962. A female Wistar rat (Janvier, Le Genest-St-Isle, France: ref RJ WAF151) of 17 days gestation was killed by cervical disclocation, the foetuses removed on embryonoic day 17 and brains removed and placed in ice-cold calcium/magnesium free Hanks balanced salt solution (HBSS: Gibco Life Technologies, Cergy-Pontoise, France: ref 14170-088 batch 302790). Each cortex was dissected and meninges were carefully removed.
The cortical neurons were dissociated by trypsinization for 5 minutes at 37° C. (trypsin: 0.5 mg/ml: Difco, LPCR, Strasbourg: ref 0152-14 batch 128856JC) and the reaction stopped by addition of HBSS containing calcium and magnesium (HBSS+ Gibco ref 24020-091; batch 3010598) with 10% of fetal bovine serum FBS; Gibco; ref 1027-098; batch 40Q1681K and 1 mg/ml DNase I (Boehringer Mannheim, Meylan, France; ref 1284938; batch 14880300).
The suspension was triturated with a 10 ml pipette (stripette Costar, Dutscher, Brumath, France) and was added in a centrifuge tube (Tube 50 ml Corning, Dutscher) containing 20 ml HBSS^− with 3.5% of BSA (Sigma, L'Isle D'Abeau Chesnes, ref. A6003, batch 29H7606) and centrifuged at low speed (150×g) for 10 min (apparatus Sigma 2-15, Bioblock, Illkirch, France).
The cells were resuspended in Dulbecco's Modified Eagle Medium (DMEM; Gibco; ref. 41965-039; batch 3032129), containing 20% FBS. Viable cells were quantified and plated at 35,000/well in 96 well plates (Nunclon, Gibco) previously coated with poly-L-lysine (0.01 mg/ml, France; ref. P5899; batch 28H8504). Cells were allowed to adhere 2 h and maintained in a humidified incubator at 37° C. in 5% CO2-95% air atmosphere.
Culture medium was then changed to a medium consisting of DMEM, 10% heat-inactivated FBS, 10% heat-inactived horse serum (Gibco, ref. 16505-080; batch 3030347) and 1% L-Glutamine (Gibco, ref. 25030-024; batch 3031499).
Since the cultures were mixed populations containing both neurons and glial cells, to minimize glial growth, the cultures were treated for 2 days with 15 μg/ml of 5-fluoro-2′-deoxyuridine (Sigma; ref. F8791; batch 97H4048) and 35 μg/ml of uridine (Sigma, ref. U3003; batch 18H11965) on day 4 of culture.
Following exposure to mitotic inhibitors, one-half of the medium was removed and replaced with growth medium consisting of 89% DMEM, 10% horse serum and 1% L-glutamine.
Glutamate toxicity experiments were performed after 13 days in culture (Glutamic acid; Sigma, ref. G6904; batch 18H11381).
On day 12, twenty-four hours before glutamate exposure, cultures were washed with DMEM and placed in medium DMEM/Ham12 with supplements but without estradiol.
The reference compounds, estradiol (Sigma, ref. E8875; batch 98H40953) and DHEA (Sigma, ref. D4000; batch 97H0301), and test compound were added at concentrations of 2, 10, 50 and 100 nM. Human FGF-basic (Tebu, Le Perray-en-Yvelines, France; ref. 100-18B; batch 107R0806 E118) was included as an additional reference and was tested at 5, 10 and 20 ng/ml. All compounds were dissolved at 10 mM in ethanol 100% (LPCR, ref. 20821467; batch J109), diluted 10,000 fold in DMEM and stocked at −20° C.
The effect of the test molecule on survival of cultured neurones was investigated alone and in intoxication conditions. The effect of the ethanol was also tested at the highest concentration used for dilution of the test molecules (100 nM=0.001% ethanol).
On day 13, cultures were exposed to glutamate 0.50, 100, 150, 200, 250, 300, 400 and 500 μM for 10 min at 37° C. in DMEM/hamF12 with supplement. The effects of the 2 reference compounds and the test compound was investigated in the presence of glutamate.
After the incubation period, the cultures were washed with DMEM and placed in DMEM/Ham12 with supplement either in the absence or presence of the compound to evaluate their post intoxication effects. […]

Compound: 3α-hydroxy-5β-pregnan-20-one sulphate
- decrease of NMDA response (NMDA receptors): 76%

Compound: CC12CCC3c4ccc(O)cc4CC(=O)C3C1CCC2O (stereo not shown) [7-keto-estradiol]
- estrogenic activity as fraction of that of estrone (estrogenic activity): 1/300

Compound: CC(=O)[C@H]1CC[C@H]2[C@@H]3C(=O)C=C4C[C@@H](OS(=O)(=O)O)CC[C@]4(C)[C@H]3CC[C@]12C [7-keto-pregnenolone sulphate]
- decrease of NMDA response (NMDA receptors): 12%

Compound: C[C@]12CC[C@H](O)CC1=C[C@@H](O)[C@@H]1[C@@H]2CC[C@]2(C)C(=O)CC[C@@H]12 [7α-hydroxy-DHEA]
- neuronal damage: PI fluorescence as % of CA1 ([1]; 10 nM): 1.1±0.9%
- neuronal death in CA1 ([1]; concentration not given): 4.3±1.3%
- effect on normal cell death (Rat cortical neurons; 10 nM): significantly decreased normal cell death

Compound: C[C@]12CC[C@@H]3c4ccc(O)cc4C[C@@H](O)[C@H]3[C@@H]1CC[C@@H]2O [7α-hydroxy-estradiol, Estra-1,3,5(10)-triene 3,7α,17β-triol]
- neuronal damage: PI fluorescence as % of CA1 ([1]; 1 nM): 21.5±11.3%
- neuronal damage: PI fluorescence as % of CA1 ([1]; 10 nM): 13.0±4.7%
- neuronal damage: PI fluorescence as % of CA1 ([1]; 100 nM): 5.9±2.1%
- estrogenic activity as fraction of that of estrone (estrogenic activity): 1/300

Compound: CC(=O)[C@H]1CC[C@H]2[C@@H]3[C@H](O)C=C4C[C@@H](O)CC[C@]4(C)[C@H]3CC[C@]12C [7α-hydroxy-pregnenolone]
- neuronal damage: PI fluorescence as % of CA1 ([1]; 100 nM): 11.6±4.0%
- less cell death in presence of glutamate (Rat cortical neurons; 10 nM, glutamate 200 μM): up to 10%

Compound: C[C@]12CC[C@H](O)CC1=CC[C@@H]1[C@@H]2CC[C@]2(C)C(=O)CC[C@@H]12 [DHEA]
- effect on normal cell death (Rat cortical neurons; 10 nM): protect significantly
- effect on normal cell death (Rat cortical neurons; 50 nM): protect significantly
- protection of cortical neurones from glutamate neurotoxicity (Rat cortical neurons; doses of 0, 50 and 100 nM, glutamate 200 μM): failing to protect

Compound: C[C@]12CC[C@@H]3c4ccc(O)cc4CC[C@H]3[C@@H]1CC[C@@H]2O [estradiol]
- effect on cell death in glutamate toxicity assay (FIG. 3) (Rat cortical neurons; primary cortical neurones): no effect
